As a reminder, the IC50 is the concentration that inhibits the measured activity by half.

Bounds are passed on as bounds.

One data set relates to A549. Nature of the data set: Anticancer activity human A549 cells assessed as growth inhibition by MTT colorimetric assay. The data set is classed as functional, cell-based. Background: Tetrazolium dyes change colour on reduction, which living cells bring about.
A further data set has as its system MCF7. The data set can be described thus: Anticancer activity human MCF7 cells assessed as growth inhibition by MTT colorimetric assay. The data set is classed as functional, cell-based.
A short description of data set [1]: Anticancer activity human Hs683 cells assessed as growth inhibition by MTT colorimetric assay. The format is functional, cell-based. The conditions noted are these: Hs 683.
Data set [2] can be described thus: Anticancer activity human U373 cells assessed as growth inhibition by MTT colorimetric assay. The data set is classed as functional, cell-based, U-373MG ATCC. The conditions noted are these: U373 MG.
Another data set deals with SK-MEL-28. The data set can be described thus: Anticancer activity human SK-MEL-28 cells assessed as growth inhibition by MTT colorimetric assay. The format is functional, cell-based.
Data set [3] is described as follows: Anticancer activity mouse B16F10 cells assessed as growth inhibition by MTT colorimetric assay. The format is functional, cell-based. The conditions noted are these: B16-F10.
For another data set, the system named is NHDF. Nature of the data set: Cytotoxicity against human NHDF cells by MTT colorimetric assay. The data set is classed as cell-based.
The nature of data set [4]: Cytotoxicity against human NHLF cells by MTT colorimetric assay. The data set is classed as cell-based.

As for `COc1ccc(-c2cn3nc(-c4ccccc4)c(CN4CCOCC4)c3n2C)cc1`, the IC50 in the data set with A549 was 9 µM; with MCF7 it was 5 µM; in data set [1], 5 µM; in data set [2], 4 µM; with SK-MEL-28, 14 µM; in data set [3], 5 µM.
In the case of `COc1ccc(-c2c(-c3ccncc3)n3nc(-c4ccccc4)c(CN4CCOCC4)c3n2C)cc1`, the IC50 with A549 was 5 µM; in the data set on MCF7, 16 µM; in data set [1], 3 µM; in data set [2], 12 µM; in the data set with SK-MEL-28, 5 µM; in data set [3] it was 2 µM.
With `COc1ccc(-c2cn3nc(-c4ccccc4)c(C(=O)N4CCOCC4)c3n2C)cc1`, the 50% inhibitory concentration (IC50) with A549 is above 100 µM; in the data set with MCF7, above 100 µM; in data set [1] it was above 100 µM; in data set [2], above 100 µM; with SK-MEL-28, above 100 µM; in data set [3], 76 µM.
Take `COc1ccc(-c2c(-c3ccc(C)cc3)n3nc(-c4ccccc4)c(CN4CCCCC4)c3n2C)cc1`: the IC50 with A549 stood at 51 µM; in the data set with MCF7, 72 µM; in data set [1], 37 µM; in data set [2], 33 µM; with SK-MEL-28 it was 39 µM; in data set [3] it was 25 µM.
Turning to `COc1ccc(-c2c(-c3ccc(C(F)(F)F)cc3)n3nc(-c4ccccc4)cc3n2C)cc1`, the IC50 (in the data set on A549; in the data set with MCF7; in data set [1]; in data set [2]; in the data set on SK-MEL-28) was above 100 µM throughout.
On to `COc1ccc(-c2c(-c3cccc(C)c3)n3nc(-c4ccccc4)cc3n2C)cc1`, for which the half-maximal inhibitory concentration (IC50) in the data set with A549 came to 31 µM; in the data set on MCF7, 75 µM; in data set [1] it was 59 µM; in data set [2] it was 46 µM; in the data set on SK-MEL-28, 29 µM.
Consider `COc1ccc(-c2c(-c3ccc(C(F)(F)F)cc3)n3nc(-c4ccccc4)c(CN4CCOCC4)c3n2C)cc1`, for which the Activity entry (in the data set on NHDF; in data set [4]) was “Non-toxic” each time. Moreover, the IC50 in the data set on A549 is 1.3 µM; with MCF7 it was 1.9 µM; in data set [1] it was 0.9 µM; in data set [2] it was 0.8 µM; in the data set on SK-MEL-28 it was 2.3 µM; in data set [3], 2.1 µM.
With `COc1ccc(-c2c(-c3ccc(C)cc3)n3nc(-c4ccccc4)c(CN4CCOCC4)c3n2C)cc1`, the IC50 was 37 µM with A549; 45 µM in the data set on MCF7; 48 µM in data set [1]; 30 µM in data set [2]; above 100 µM with SK-MEL-28; 46 µM in data set [3].
In the case of `COc1ccc(-c2c(-c3ccc(C(F)(F)F)cc3)n(C)c3c(CN4CCOCC4)c(-c4ccccc4)nn23)cc1`, the IC50 is 37 µM in the data set on A549; 59 µM in the data set on MCF7; 62 µM in data set [1]; 20 µM in data set [2]; 28 µM in the data set with SK-MEL-28; 38 µM in data set [3].
As for `COc1ccc(-c2c(-c3ccc(C)cc3)n3nc(-c4ccccc4)c(CN4CCN(C)CC4)c3n2C)cc1`, the IC50 was found to be 20 µM in the data set on A549; 18 µM with MCF7; 18 µM in data set [1]; 19 µM in data set [2]; 21 µM in the data set with SK-MEL-28; 12 µM in data set [3].
As for `COc1ccc(-c2c(-c3ccc(C(F)(F)F)cc3)n3nc(-c4ccccc4)c(CN4CCN(C)CC4)c3n2C)cc1`, the IC50 with A549 amounted to 20 µM; with MCF7 it was 20 µM; in data set [1], 21 µM; in data set [2], 24 µM; in the data set on SK-MEL-28, 19 µM; in data set [3], 23 µM.
`COc1ccc(-c2cn3nc(-c4ccccc4)c(C(=O)N4CCN(C)CC4)c3n2C)cc1`: the IC50 was above 100 µM in the data set with A549; 88 µM in the data set with MCF7; above 100 µM in data set [1]; above 100 µM in data set [2]; above 100 µM with SK-MEL-28; 74 µM in data set [3].
On to `COc1ccc(-c2c(-c3ccccc3C#N)n3nc(-c4ccccc4)cc3n2C)cc1`, for which the 50% inhibitory concentration (IC50) is 22 µM in the data set with A549; 35 µM in the data set on MCF7; 26 µM in data set [1]; 13 µM in data set [2]; 16 µM in the data set on SK-MEL-28.
Turning to `COc1ccc(-c2c(-c3ccc(OC)cc3)n3nc(-c4ccccc4)cc3n2C)cc1`, the concentration for half-maximal inhibition (IC50) in the data set on A549 is above 100 µM; in the data set with MCF7, above 100 µM; in data set [1], above 100 µM; in data set [2] it was 96 µM; in the data set with SK-MEL-28, above 100 µM.
